Measurements published in patent US12297188B2, “Crystalline forms of (S)-1-(1-acryloylpyrrolidin-3-yl)-3-((3,5-dimethoxyphenyl)ethynyl)-5-(methylamino)-1H-pyrazole-4-carboxamide” (Beijing InnoCare Pharma Tech Co., Ltd., priority 2019, dated 2025).
≈ marks a conversion by molar mass, not a printed value. Entries after “also recorded” stand apart in the source; their conditions may differ.

What was measured:
[1] = test system: fibroblast growth factor receptor (FGFR); conditions: cited from earlier work
[2] = Equilibrium solubility in water; assay type: physicochemical; conditions: for solubility classification: water, room temperature, 24 hours
[3] = Stability assessment on storage (XRPD and HPLC purity); assay type: physicochemical; conditions: for XRPD change after storage / purity change after storage / stability after storage: 25° C./60% RH and 40° C./75% RH (opened) one week
Description: About 10 mg Form A of Compound I was added to each 1.5-mL glass vial and stored at (i) 80° C. (closed) for one day, or (ii) 25° C./60% RH and 40° C./75% RH (opened) for one week, and then analyzed for XRPD and HPLC purity.
About 10 mg Form C of Compound I was added to each 1.5-mL glass vial and stored under 25° C./60% RH (FIG. 13) and 40° C./75% RH (opened, FIG. 14) for one week, and then analyzed for XRPD and HPLC purity.

[4] = Thermogravimetric analysis (thermal stability); assay type: physicochemical
Description: TGA is a method of thermal analysis in which the mass of a sample is measured over time as the temperature changes. TGA evaluates the thermal stability of a material.
(§1) X-ray powder diffraction (XRPD) studies in the present disclosure were performed using a Bruker D8 ADVANCE X-ray powder diffractometer. The parameters of the XRPD method of Compound I were as follows: • X-ray reflection: Cu, Kα • Kα1 (Å): 1.540598; Kα2 (Å): 1.544426 • Kα2/Kα1 intensity ratio: 0.50 • Voltage: 40 kV • Current: 40 mA • Scanning range: from 3.0 to 40.0 degree • Differential scanning calorimetry (DSC) data in the present disclosure were acquired by a TA DSC250. The parameters of the DSC method of Compound I were as follows: • Heating rate: 10° C./min • Purging gas: nitrogen • Thermogravimetric analysis (TGA) data in the present disclosure were acquired by a TA TGA550. The parameters of the TGA method of Compound I were as follows: • Heating rate: 10° C./min • Purging gas: nitrogen • Dynamic vapor sorption (DVS) data in the present disclosure were acquired by a SMS Intrinsic DVS. The parameters of the DVS method of Compound I were as follows: • Temperature: 25° C. • Gas and flow rate: nitrogen, 200 mL/min • dm/dt: 0.002%/min • Relative humidity (RH) range: 0% RH-95% RH

[5] = Interconversion of Forms A-C (heating and slurry competition); assay type: physicochemical; conditions: for form obtained from slurry competition: equal amounts of Form A and B, isopropyl alcohol/water, aw=0~1, room temperature
Text: The relationships among Forms A-C were investigated via heating and slurry competition experiments.

[6] = Hygroscopicity assessment by DVS; assay type: physicochemical; conditions: for hygroscopicity / water uptake: DVS; for XRPD before and after DVS testing: DVS 0% RH-95% RH; for water uptake: 80% RH, 25° C.
Description: as §1
About 30 mg Form A of Compound I was assessed for hygroscopicity using a DVS analyzer, and tested by XRPD before and after DVS analysis. DVS is a gravimetric technique that measures how quickly and how much of a solvent is absorbed by a sample.
About 30 mg Form C of Compound I was assessed for hygroscopicity using a DVS analyzer, and tested by XRPD before and after DVS analysis.

[7] = 25° C./60% RH for 1 week (opened)
[8] = 40° C./75% RH for 1 week (opened)

form obtained from slurry competition [5]	solubility classification [2]	Purity (%) [3, 7] [%]	Purity (%) [3, 8] [%]	Purity (%) ([3]; Day 0)	XRPD before and after DVS testing [6]	water uptake [6] [%]	weight loss (TGA) ([4]; heated to 180° C.)	SMILES	hygroscopicity [6]	further results
–	–	–	–	–	–	–	–	C=CC(=O)N1CC[C@H](n2nc(C#Cc3cc(OC)cc(OC)c3)c(C(N)=O)c2NC)C1 [Compound I, (S)-1-(1-acryloylpyrrolidin-3-yl)-3-((3,5-dimethoxyphenyl)ethynyl)-5-(methylamino)-1H-pyrazole-4-carboxamide]	–	FGFR inhibition [1]: potent inhibitor
gave Form A	–	–	–	–	–	–	–	C=CC(=O)N1CC[C@H](n2nc(C#Cc3cc(OC)cc(OC)c3)c(C(N)=O)c2NC)C1 [Form B, (S)-1-(1-acryloylpyrrolidin-3-yl)-3-((3,5-dimethoxyphenyl)ethynyl)-5-(methylamino)-1H-pyrazole-4-carboxamide]	–	solubility thermodynamic ([2]; thermodynamic from solid, conditions not stated): 15.1 µg/mL (≈ 35.8 µM); chemical stability [3]: chemically stable; physical stability ([3]; can be converted to Form A or Form C): not physically stable; weight loss by TGA ([4]; temperature not stated): about 2.42%
gave Form A	almost insoluble or insoluble	99.78	99.76	99.75	did not change	0.14	about 0.02%	C=CC(=O)N1CC[C@H](n2nc(C#Cc3cc(OC)cc(OC)c3)c(C(N)=O)c2NC)C1 [Form A, (S)-1-(1-acryloylpyrrolidin-3-yl)-3-((3,5-dimethoxyphenyl)ethynyl)-5-(methylamino)-1H-pyrazole-4-carboxamide]	not hygroscopic	XRPD change after storage ([3]; 80° C. (closed) one day): little or no change; purity change after storage ([3]; 80° C. (closed) one day): no purity change; stability after storage ([3]; 80° C. (closed) one day): stable; Purity (%) ([3]; 80° C. for 1 day (closed)): 99.77%; thermal stability ([4]; TGA, heated to 180° C.): thermally stable; thermodynamic stability ([5]; room temperature, versus Form B and C): better thermodynamic stability
–	almost insoluble or insoluble	96.91	96.99	96.83	did not change	5.44	about 2.40%	C=CC(=O)N1CC[C@H](n2nc(C#Cc3cc(OC)cc(OC)c3)c(C(N)=O)c2NC)C1 [Form C, (S)-1-(1-acryloylpyrrolidin-3-yl)-3-((3,5-dimethoxyphenyl)ethynyl)-5-(methylamino)-1H-pyrazole-4-carboxamide]	moderately hygroscopic; also recorded: moderately hydgroscopic	solubility ([2]; after equilibrium in water at room temperature for 24 hours): 15.93 µg/mL (≈ 37.6 µM); XRPD change after storage [3]: little or no change; purity change after storage [3]: no significant purity change; stability after storage [3]: stable; form conversion on heating ([5]; heating to 145° C. and subsequently cooling to room temperature): converted to Form A
